Laboratory results as given in patent US11779618B2, “Treatment of topical and systemic bacterial infections” (priority 2014, dated 2023).

System: S. aureus 8588
Test: Effectiveness against S. aureus 8588 (absorbance, Mueller-Hinton broth)
Type: cell-based
Settings: 0.01 mg/ml ampicillin (below MIC)
Excerpt: The absorbance readings of treatments above the MIC were similar to the negative control of Mueller-Hinton broth alone indicating no bacterial growth.
The absorbance readings of the phage K treated wells were similar to the negative control Mueller-Hinton broth alone.

CC1(C)S[C@@H]2[C@H](NC(=O)[C@H](N)c3ccccc3)C(=O)N2[C@H]1C(=O)O [ampicillin]
effect on bacterial growth: has some effect on bacterial growth but is not totally effective
